One block for each compound: values may come before it.
Key:
HepG2 cells [1] = assay: TG-HDL2 internalisation assay; format: cell-based, human; conditions: for effect on internalisation of 125I-TG-HDL2: 75 μg/ml 125I-TG-HDL2, 10 min at 37° C., 10 μg/ml free-apoA-I, 100 nM ADP, 100 nM ATP, 0.2 U/ml apyrase, 100 nM EGF
Description: (§1) Panel 1, 2 and 3. TG-HDL2 and LDL internalization by HepG2 cells. Cells are incubated for 10 min at 37° C. with 75 μg/ml of ^125I-TG-HDL2 (panels 1 and 3), TG-HDL2 labelled with ^3H-cholesteryl ester (panel 1 “chol”) or ^1251-LDL (panel 2). Alternatively, 10 μg/ml free-apoA-I (A, G), 100 nM ADP (B, H), both free-apoA-I and ADP at the same concentrations as above (C), 100 nM ATP (D), 0.2 U/ml apyrase (E), 100 nM EGF (F), or increasing concentrations of 2MeS-ADP (▪) and ATPγS (□) (panel 3) are added to the incubation medium. Results are expressed as the percentage of stimulation related to the value of internalisation obtained without addition of any compound (corresponding to a value of 400 ng TG-HDL2/mg of cell protein). The same experiments are performed on IHH cells with similar results (data not shown).
HepG2 cells are incubated for 10 min at 37° C. in DMEM pH 6.6 with 75 μg/ml of ^125I-TGHDL 2 and in the presence of increasing concentrations of IF, without (panel A) or with (panel B) free-apoA-I (10 μg/ml). Results are expressed as the percentage of stimulation as referred to the value of internalisation obtained without addition of any compound (corresponding to a value of 400 ng TG-HDL2/mg of cell protein).
Cells are washed three times and pre-incubated for 30 min at 37° C. in serum free DMEM. ^125I triglyceride rich-HDL2 (75 μg/ml) are added on the cells and incubated at 37° C. for various time. Depending on the experiment, free apolipoprotein A-I (10 μg/ml) or other compounds, are added to the incubation medium. At each incubation time, cells are washed with cold DMEM and the release of radioactive ligands associated to the cell surface is performed at 4° C., for 90 min in DMEM. The radioactivity internalised into the cells and the protein content is determined as in the competition assays. Non-specific internalisation is analysed in the presence of an excess of 600 μg/ml of HDL3. Results are expressed as the percentage of stimulation related to the value of internalisation obtained without addition of any compound. The same method is used for the measurement of LDL internalisation.

EGF receptor = EGF receptor internalisation by flow cytometry; format: cell-based, human; conditions: HepG2, 10 min pre-incubation, 10 μg/ml free-apoA-I or 100 nM ADP
Description: Panel 4. Internalisation of EGF receptor by HepG2 cells. Cells are pre-incubated for 10 min in serum-free medium with (J) or without (K) […] EGF, or with 10 μg/ml free-apoA-I (L), 100 nM ADP (M). The amount of EGF receptor is measured by Flow Cytometry using anti-EGF receptor antibody. As a control experiment for the efficacy of EGF receptor antibody, isotypic IgG are used (I). Results are expressed as the mean relative cell fluorescence and receptor internalisation is related to lower fluorescence.
(§2) For analysis of the cell surface EGF receptor, HepG2 cells are preincubated in medium with or without 20 nM EGF for 10 min at 37° C. For flow cytometry analysis, HepG2 and CHO cells are detached by incubation with Ca2+, Mg2+free PBS containing 2 mM EDTA, pH 7.4, fixed in 3% paraformaldehyde and pelleted in a microfuge. Cells are incubated at 20° C. for 1 h in PBS, pH 7.4 containing 1% BSA with either mouse monoclonal antibodies against the human β-subunit of ATP synthase, the human cytochrome oxidase subunit I, the human EGF receptor or against isotypic control IgG. Cells are washed in PBS/BSA 1% and incubated at 20° C. for 30 min with goat anti-rabbit IgG conjugated to fluorescein isothiocyanate. After a final wash, cells are pelleted and resuspended in PBS/BSA 1% at a density of 1×10^6 cells/ml. The mean relative fluorescence after excitation at a wavelength of 488 nm is determined for each sample on a Coulter XL 4C flow cytometer and analysed with CELLQUEST software (Becton-Dickenson).

[2] = molecular target: T1, β-subunit of ATP synthase (Homo sapiens, UniProt P06576); assay: Flow cytometry detection of cell surface β-subunit of ATP synthase; format: cell-based; conditions: excess of free-apoA-I (100 nM), HepG2 cells
T1 construct: endogenous in cells; host or cells: HepG2 (ATCC)
Description: HepG2 and CHO cells were analyzed by fluorescence-assisted flow cytometry. Plots are shown for HepG2 (panel A) and CHO (panel C) where solid lines represent cells incubated with an anti b-subunit of ATP synthase mouse monoclonal IgG2a in absence (e) or presence (d) of 100 nM apoA-I, 250 μg/ml of FI-ATPase (c) or incubated with an isotypic control mouse IgG2a (a) and […] anti cytochrome oxidase subunit I mouse monoclonal IgG2a (b, dashed lines). In panel B and D, the histograms are expressed as the mean relative fluorescence of the curves a to e on HepG2 (B) or CHO cells (D).
as §2, with “Cells are washed in PBS/BSA 1% and incubated at 20° C. for 30 min with goat anti-rabbit IgG conjugated to fluorescein isothiocyanate. After a final wash, cells are pelleted and resuspended in PBS/BSA 1% at a density of 1×10^6 cells/ml.” left out

[3] = molecular target: T2, cell surface ATP synthase (Homo sapiens, UniProt P06576); assay: Cell surface ADP generation assay (ATP hydrolysis), HPLC/TLC; format: cell-based; conditions: HepG2
T2 construct: endogenous in cells; host or cells: HepG2
Description: (§3) ^32Pi and ADP (panels A and B) or [α-32P] ATP (panels C, D, E and F) are added to the HepG2 cell medium as described in Experimental Procedures, and the cells are incubated for 10 min at 37° C. with 10 μg/ml apoA-I (panels B and D), 100 nM IF1 (panel E), or both IF1 […] and apoA-I at the same concentrations as above (panel F). Control experiments are performed with neither apo AI nor IF1 added into the cell medium (panel A and C). Supernatants are recovered and analysed by HPLCs.
(§4) Confluent HepG2 in 6-well plates are washed in DMEM, then incubated at 37° C. for 10 min in DMEM pH 6.6 with 0.1 μCi [α-32P] ATP for ADP generation assay, or with 0.1 μCi 32Pi and ADP (100 nM final) for ATP generation assay. Depending on the experiment, IF1 (100 nM final) or apoA-I (10 μg/ml final) are added in the reaction mixture. Supernatants are removed and analysed using two different systems: 1) by HPLC coupled to a radioactivity detector on a Whatman Partisphere 5 SAX column (Whatman International Ltd., UK) as described previously (13); calibration is done with radiolabelled nucleotides. 2) by thin layer chromatography in the solvent NaCl 2.4%/NH4OH/H2O/MeOH (12.5/15/27.5/50, v/v); radioactive spots are counted by liquid scintillation.

HepG2 cells [4] = assay: Competitive inhibition of binding of 125I-labeled apoA-I to HepG2 cells; design: species or system human; conditions: 1 μg/ml 125I-apoA-I, no competitor, 2 h at 4° C.
Description: HepG2 cells (panel A) and submitochondrial particles (panel B) are incubated for 2 h at 4° C. in the presence of 1 μg/ml ^125I-labeled apoA-1 and 5 μg/ml ^125I-labeled HDL3 respectively, in the presence of increasing concentrations of either unlabeled apoA-I (◯, panel A), unlabeled HDL3 (●, panel B), anti β-subunit of ATP synthase mouse monoclonal IgG2a (□) or purified isotype mouse IgG2a (♦). The 100% specific binding corresponds to 25,5 ng apoA-I bound per mg of cell proteins (panel A) and 2050 ng HDL3 protein bound per mg of mitochondrial proteins (panel B). Fab fragments from anti-β-subunit of ATP synthase are also used as competitors and results are identical to anti β-subunit IgG2a (data not shown). The results are representative of three independent series of experiments.
The competition experiments are performed at 4° C. for 2 h as previously described (6). […] Cells are washed twice with ice-cold PBS (maximum washing time is 15 s), lysed with 500 μl of 0.1 N NaOH, and the NaOH digest is used for radioactivity measurement and protein determination. […] Filters are used for radioactivity measurements. […] Data are expressed as the percentage of the specific binding measured in the absence of competitor versus the log of competitor concentration (in nM).

[5] = molecular target: T2, cell surface ATP synthase; assay: Cell surface ATP generation assay (ATP synthesis), HPLC/TLC; format: cell-based; conditions: 10 μg/ml free-apoA-I, 10 min, HepG2
Description: as §3, §4

HepG2 cells [6] = assay: LDL internalisation assay; format: cell-based, human; conditions: 10 μg/ml free-apoA-I or 100 nM ADP, 10 min at 37° C.
Description: as §1
Cells are washed three times and pre-incubated for 30 min at 37° C. in serum free DMEM. ^125I triglyceride rich-HDL2 (75 μg/ml) are added on the cells and incubated at 37° C. for various time. […] The radioactivity internalised into the cells and the protein content is determined as in the competition assays. Non-specific internalisation is analysed in the presence of an excess of 600 μg/ml of HDL3. Results are expressed as the percentage of stimulation related to the value of internalisation obtained without addition of any compound. […]

HepG2 cells and IHH = assay: Cholesterol efflux; format: cell-based, human; conditions: for influence on cholesterol efflux: range of 1 nM to 10 μM
rat liver = assay: TG-HDL2 internalisation by perfused rat liver (in situ); format: in vivo
Description: The liver from male Whistar rats (7-8 weeks old) were perfused in situ during 45 minutes at 37° C. in Ringer medium (pH 6.8) with 35 μg/ml of 1251-TG-HDL2 with or without 1 μM IF1. Livers were then extensively washed at 4° C. and radioactivity counted. n=7 per group. Values represent means±SEM, with p<0.02 (unpaired t-test). Control fluorescence-assisted flow cytometry experiments have shown the presence of both the Band a-chain ATP synthase at the cell surface of isolated rat hepatocytes (not shown).

T2 sequence (P06576 48-529): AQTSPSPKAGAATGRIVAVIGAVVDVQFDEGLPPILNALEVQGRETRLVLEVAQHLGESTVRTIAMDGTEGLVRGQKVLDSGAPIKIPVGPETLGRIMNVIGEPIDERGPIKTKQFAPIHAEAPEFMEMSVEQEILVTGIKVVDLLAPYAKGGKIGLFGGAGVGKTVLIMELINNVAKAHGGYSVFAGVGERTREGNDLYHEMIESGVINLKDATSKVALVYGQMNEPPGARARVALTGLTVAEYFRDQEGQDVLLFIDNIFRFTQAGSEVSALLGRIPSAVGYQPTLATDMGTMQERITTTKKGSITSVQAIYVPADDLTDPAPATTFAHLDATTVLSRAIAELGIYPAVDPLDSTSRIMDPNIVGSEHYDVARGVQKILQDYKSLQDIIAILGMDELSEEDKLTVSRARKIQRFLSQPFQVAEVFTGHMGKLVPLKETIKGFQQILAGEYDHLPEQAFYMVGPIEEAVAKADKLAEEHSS
T2 sequence (P25705 44-553 partner): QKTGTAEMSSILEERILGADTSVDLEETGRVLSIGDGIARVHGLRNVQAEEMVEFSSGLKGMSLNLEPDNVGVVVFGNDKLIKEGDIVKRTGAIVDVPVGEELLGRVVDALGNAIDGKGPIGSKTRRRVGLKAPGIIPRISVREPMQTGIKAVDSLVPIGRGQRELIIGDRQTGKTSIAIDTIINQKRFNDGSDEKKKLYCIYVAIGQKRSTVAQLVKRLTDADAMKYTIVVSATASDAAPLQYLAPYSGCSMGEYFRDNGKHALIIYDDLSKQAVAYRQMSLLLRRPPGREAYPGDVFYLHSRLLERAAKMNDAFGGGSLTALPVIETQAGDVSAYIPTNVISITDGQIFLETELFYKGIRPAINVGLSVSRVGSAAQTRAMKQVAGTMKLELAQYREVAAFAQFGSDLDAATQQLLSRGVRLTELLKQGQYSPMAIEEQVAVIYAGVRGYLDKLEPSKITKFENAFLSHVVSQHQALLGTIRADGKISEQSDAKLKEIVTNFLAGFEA
T2 sequence (P36542 26-298 partner): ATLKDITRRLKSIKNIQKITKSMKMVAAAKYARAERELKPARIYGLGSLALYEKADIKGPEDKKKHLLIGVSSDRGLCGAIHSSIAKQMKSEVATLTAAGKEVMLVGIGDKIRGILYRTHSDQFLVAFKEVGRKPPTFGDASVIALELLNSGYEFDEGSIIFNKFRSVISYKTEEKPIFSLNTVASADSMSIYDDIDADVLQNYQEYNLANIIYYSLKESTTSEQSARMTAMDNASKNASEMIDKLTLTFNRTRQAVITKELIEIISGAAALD
T2 sequence (P30049 23-168 partner): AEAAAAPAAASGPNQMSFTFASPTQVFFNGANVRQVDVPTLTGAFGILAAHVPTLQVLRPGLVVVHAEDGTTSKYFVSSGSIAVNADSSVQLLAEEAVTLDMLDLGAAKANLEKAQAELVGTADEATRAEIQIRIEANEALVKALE
T2 sequence (P56381 2-51 partner limits assumed): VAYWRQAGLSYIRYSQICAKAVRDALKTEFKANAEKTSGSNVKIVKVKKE
T1 sequence (P06576 48-529): as the sequence (P06576 48-529) above
T1 sequence (P25705 44-553 partner): as the sequence (P25705 44-553 partner) above
T1 sequence (P36542 26-298 partner): as the sequence (P36542 26-298 partner) above
T1 sequence (P30049 23-168 partner): as the sequence (P30049 23-168 partner) above
T1 sequence (P56381 2-51 partner limits assumed): as the sequence (P56381 2-51 partner limits assumed) above

Compound: CSc1nc(N)c2ncn([C@@H]3O[C@H](COP(=O)(O)OP(=O)(O)O)[C@@H](O)[C@H]3O)c2n1 [2MeS-ADP]
effect on TG-HDL2 endocytosis (HepG2 cells [1]; 2MeS-ADP at 10 to 100 nM): stimulatory effect
effect on TG-HDL2 endocytosis (HepG2 cells [1]; 2MeS-ADP at higher concentrations (1 μM to 10 μM)): inhibition of endocytosis

Compound: Nc1ncnc2c1ncn2[C@@H]1O[C@H](COP(=O)(O)OP(=O)(O)OP(O)(O)=S)[C@@H](O)[C@H]1O [ATPγS]
stimulation of TG-HDL2 endocytosis (HepG2 cells [1]; ATPγS at 10 μM): 15%
effect on TG-HDL2 endocytosis (HepG2 cells [1]; ATPγS at low concentrations): weak effect

Compound: EGF: known to induce endocytosis of the EGF receptor (NSDSECPLSHDGYCLHDGVCMYIEALDKYACNCVVGYIGERCQYRDLKWWELR; Epidermal growth factor; UniProt P01133 971-1023, looked up)
effect on internalisation of 125I-TG-HDL2 (HepG2 cells [1]): does not stimulate
number of EGF-R at the cell surface (EGF receptor): strongly reduces

reduction of immunoreactivity of the anti β-subunit antibody [2]: more than 3 fold
increase of [α32P]-ADP generated from [α-32P]-ATP ([3]; 10 μg/ml apoA-I, 10 min at 37° C.): up to 79%
Compound: free-apoA-I: major apoprotein of HDL, single polypeptide chain of 243 amino acid residues, isolated from HDL3 by ion-exchange chromatography
radioactivity internalised into the cells (125I-labeled TG-HDL2) (HepG2 cells [1]; increasing free-apoA-I from 0.1 to 20 μg/ml, HepG2 or IHH cells, preliminary experiment): increased
100% specific binding (HepG2 cells [4]): 25,5 ng apoA-I bound per mg of cell proteins
number of EGF-R at the cell surface (EGF receptor): neither free apoA-I (FIG. 6-4L) nor ADP (FIG. 6-4M) are able to reduce
ATP synthesis from ADP plus 32Pi [5]: no synthesis of ATP is detected
stimulation of endocytosis of 125I-labeled LDL (HepG2 cells [6]): no stimulation
stimulation of the cholesterol efflux (HepG2 cells and IHH; free-apoA-I): 2 to 2.5 fold

Compound: Nc1ncnc2c1ncn2[C@@H]1O[C@H](COP(=O)(O)OP(=O)(O)OP(=O)(O)O)[C@@H](O)[C@H]1O [ATP]
effect on internalisation of 125I-TG-HDL2 (HepG2 cells [1]): small stimulation

decrease of [α-32P]-ADP generated as compared to control ([3]; 100 nM IF1, 10 min at 37° C.): 48%
effect on the free-apoA-I stimulation of ATP hydrolysis ([3]; 100 nM IF1 plus 10 μg/ml apoA-I, 10 min at 37° C.): could inhibit the stimulatory effect
Compound: IF1: natural inhibitor protein of mitochondrial F1-ATPase, inhibits the hydrolytic activity of the ATP synthase
effect on stimulation of TG-HDL2 endocytosis by free-apoA-I (HepG2 cells [1]; higher concentrations of IF1, with free-apoA-I 10 μg/ml, DMEM pH 6.6): completely abolish
effect on TG-HDL2 internalisation (HDL endocytosis) (HepG2 cells [1]; increasing concentrations of IF1, without free-apoA-I, DMEM pH 6.6, 10 min at 37° C.): dramatic decrease
influence on cholesterol efflux (HepG2 cells and IHH): no influence
TG-HDL2 internalisation by perfused rat liver (rat liver; 1 μM IF1, 35 μg/ml 125I-TG-HDL2, 45 minutes at 37° C., means±SEM, n=7): 2.597 ± 1.026 μgTG-HDL2/g of liver
decrease of TG-HDL2 internalisation by the liver (rat liver; perfused rat liver, 45 min, 1 μM IF1): up to 45%

Compound: Nc1ncnc2c1ncn2[C@@H]1O[C@H](COP(=O)(O)OP(=O)(O)O)[C@@H](O)[C@H]1O [ADP, reference compound]
effect on internalisation of 125I-TG-HDL2 (HepG2 cells [1]): stimulates
number of EGF-R at the cell surface (EGF receptor): neither free apoA-I (FIG. 6-4L) nor ADP (FIG. 6-4M) are able to reduce
stimulation of endocytosis of 125I-labeled LDL (HepG2 cells [6]): no stimulation
influence on cholesterol efflux (HepG2 cells and IHH): no influence

Compound: apyrase
effect on internalisation of 125I-TG-HDL2 (HepG2 cells [1]): completely abolishes
